Test system: rat adipocytes
Assay: IPG A-type bioassay: stimulation of lipogenesis ([U14C] glucose into lipids) in adipocytes
Type: cell-based
Conditions: insulin standard assayed at the same time
Method: The activity of P- and A-type IPGs in urine and placental extracts were studied using specific bioassay procedures. IPG P-type was determined using the activation of PDH phosphatase. The PDH complex and PDH phosphatase (metal-dependent form) were prepared from beef heart as described by Lilley et al. and the assay of the activation of the phosphatase was performed by the spectrophotometric variant of the two-stage system described by these authors. This assay is considered to be a characteristic feature of IPG P-type (see Larner et al.) . IPG A-type was determined by the stimulation of lipogenesis as measured by the incorporation of [U^14C] glucose into the lipids of adipocytes isolated from epididymal fat pads by the method of Rodbell. A high degree of specificity for IPG A-type was found for this bioassay.
A straight line relationship between added IPGs and the stimulation of PDH phosphatase activity (IPG P-type) and lipogenesis in intact adipocytes (IPG A-type) was obtained; this relationship held at least up to a stimulation of +250%. These observations provided a basis for a unit to be defined and used for the purpose of comparison of yields of IPGs from different tissues and urine samples.
A unit of IPG is defined as the amount causing a 50% activation in the basal level of the test system.

With insulin [insulin standard] the “stimulation of lipogenesis above base-line” value was “+258%”.

From US6495330B1, “Materials and methods relating to the diagnosis and treatment of pre-eclampsia and diabetes” (Rodaris Pharmaceuticals Limited, priority 1996, dated 2002)
